Experimental data: patent US20250003952A1, “SENOLYTIC DRUG SCREENING METHOD AND SENOLYTIC DRUG” (KYOTO UNIVERSITY, priority 2021, published 2025)

Experiments:
caspase-3 = assay: Apoptosis by Western blotting of fragmented caspase-3 in young and senescent IMR90 cells; type: cell-based, human; conditions: different concentrations for 72 hours
Source text: Ras gene with oncogenic mutation was introduced into young cells (within 1 month of continuous culture) of IMR90 cells by retroviral infection to acquire stress senescent cells.

senescent cells = assay: Transcriptome / microarray / mRNA analysis of nutlin 3b-treated senescent cells; type: cell-based, human
Description: The latter information consists of 12,655 ChIP datasets from 903 antigens (transcription factors and epigenetic regulators).
A microarray dataset on nutlin 3b-treated senescent cells was analyzed for 202 genes (GO:0042981) classified as regulation of the apoptotic process.
In the Fox family, FoxO protein is deeply involved in the senescence process.

BIM gene = BIM gene expression in Ras-induced senescent IMR90 cells; type: cell-based, human; conditions: senescent (OIS) IMR90 cells; 48 hours
Description: An oncogenic Ras was introduced into young cells (within 1 month of continuous culture) of IMR90 cells to induce senescent cells (OIS).
An oncogenic Ras was introduced into young cells (within 1 month of continuous culture) of IMR90 cells to induce senescent cells (OIS). The senescent cells were transfected with an HIF-2α-specific siRNA (SEQ ID NO: 9) to knock down HIF-2α. After that, the expression of the BIM gene, which is an apoptosis-inducing gene, was analyzed (FIG. 26).

HIF-2α = HIF-2α protein (Western blot) and mRNA expression in IMR90 cells; type: cell-based, human
Source text: As a result, it was observed that the HIF-2α protein decreased in the nutlin 3b-treated group and the BI-D1870-treated group (upper diagram and lower diagram in FIG. 22).
An oncogenic Ras was introduced into young cells (within 1 month of continuous culture) of IMR90 cells to induce senescent cells (OIS). […] It is known that ubiquitination is induced by phosphorylation in the vicinity of a ubiquitination site (Hagai et al., 2012). The consensus sequences (K/R-K/R-x-x-S/T) for phosphorylation by Chk1 located at the N-terminus of HIF-2α were conserved, and these were named Motif1 (including Ser12 residues) and Motif2 (including Ser19 residues) (FIG. 40, SEQ ID NOs: 77 to 81).

PGAM-Chk1 binding [1] = target: T1, PGAM-Chk1 binding (Homo sapiens, UniProt O14757+P18669); assay: Nano-Bit PGAM-Chk1 binding in young and etoposide-induced senescent IMR90 cells; type: cell-based; conditions: etoposide-induced senescent IMR90 cells; 20 μM or 40 μM for 48 hours
T1 construct: expressed in transfected cells
Description: In addition, PGAM and Chk1 kinase genes tagged with Nano-Bit tags were introduced into IMR90 cells to prepare a cell line capable of stable expression Young cells (within 1 month of continuous culture) of the IMR90 cells were treated with 100 uM etoposide for 48 hours to induce cellular senescence.
T1 sequence (P18669 whole entry, one chain of several): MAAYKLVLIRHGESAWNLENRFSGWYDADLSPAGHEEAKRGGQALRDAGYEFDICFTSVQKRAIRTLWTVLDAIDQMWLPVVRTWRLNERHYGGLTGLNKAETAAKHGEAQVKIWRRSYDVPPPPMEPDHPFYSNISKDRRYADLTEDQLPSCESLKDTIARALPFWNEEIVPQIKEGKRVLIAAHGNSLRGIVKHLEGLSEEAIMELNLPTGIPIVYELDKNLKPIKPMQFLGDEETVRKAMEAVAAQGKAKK

[2] = tested on: Twenty-month-old C57BL/6 mice; assay: Nutlin 3b administration to aged mice for 3 months; type: in vivo, mouse
Source text: The vehicle group was given a solvent alone on the same schedule.

PGAM-Chk1 binding [3] = target: T2, PGAM-Chk1 binding (Homo sapiens, UniProt O14757+P18669); assay: PGAM-Chk1 binding by anti-Chk1 immunoprecipitation and anti-PGAM Western blotting in Ras-induced senescent IMR90 cells; type: cell-based; conditions: 20 μM or 40 μM for 48 hours, then MG132 6 hours
T2 construct: endogenous in cells; host or cells: IMR90 human primary fibroblasts made senescent by retroviral oncogenic Ras
T2 sequence (P18669 2-254 limits assumed): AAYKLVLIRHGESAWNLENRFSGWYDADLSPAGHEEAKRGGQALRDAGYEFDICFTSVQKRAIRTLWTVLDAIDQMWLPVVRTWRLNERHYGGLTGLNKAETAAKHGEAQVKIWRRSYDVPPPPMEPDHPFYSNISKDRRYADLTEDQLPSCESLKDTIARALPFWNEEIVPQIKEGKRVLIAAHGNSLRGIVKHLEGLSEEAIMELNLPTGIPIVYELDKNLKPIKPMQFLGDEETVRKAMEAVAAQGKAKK
T2 sequence (O14757 1-476): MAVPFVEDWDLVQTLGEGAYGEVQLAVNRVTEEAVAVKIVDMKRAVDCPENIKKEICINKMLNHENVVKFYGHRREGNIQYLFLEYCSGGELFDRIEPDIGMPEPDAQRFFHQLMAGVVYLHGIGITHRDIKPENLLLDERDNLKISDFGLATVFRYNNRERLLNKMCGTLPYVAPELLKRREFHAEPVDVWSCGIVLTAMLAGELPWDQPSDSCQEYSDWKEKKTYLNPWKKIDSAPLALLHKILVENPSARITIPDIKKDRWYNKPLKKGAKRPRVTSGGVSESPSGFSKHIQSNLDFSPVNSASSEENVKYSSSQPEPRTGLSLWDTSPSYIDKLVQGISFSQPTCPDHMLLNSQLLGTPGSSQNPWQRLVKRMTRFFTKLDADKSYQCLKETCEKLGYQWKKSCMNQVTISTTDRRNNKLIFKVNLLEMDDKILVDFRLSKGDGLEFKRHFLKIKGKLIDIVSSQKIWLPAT
Description: Human primary fibroblasts, IMR90 cells, were obtained from the JCRB Cell Bank. An oncogenic Ras mutation was retrovirally introduced into young cells (within 1 month of continuous culture) of the IMR90 cells to induce cellular senescence. […] After that, these cells were treated with MG132 for 6 hours, and cell lysates were prepared. The obtained cell lysates were immunoprecipitated with an anti-Chk1 antibody. The resulting immunoprecipitate was used for Western blotting with an anti-PGAM antibody to evaluate PGAM-Chk1 binding.
Next, in the same manner as above, IMR90 cells were used to prepare stress-induced senescent cells by introducing an oncogenic mutated Ras gene. The senescent cells were transfected with an RSK1 siRNA (SEQ ID NO: 7) or a control to knock down RSK1. The resulting cells were collected, and proteins were extracted. The resulting protein extract was immunoprecipitated with an anti-Chk1 antibody. The resulting immunoprecipitate was used for Western blotting with an anti-PGAM antibody to evaluate PGAM-Chk1 binding.

PGAM-Chk1 binding [4] = target: T1, PGAM-Chk1 binding; assay: Nano-Bit PGAM-Chk1 binding in cancer cell line H1299; type: cell-based; conditions: H1299 cells; 40 μM for 12, 24, and 48 hours
Source text: PGAM and Chk1 kinase genes tagged with Nano-Bit tags were introduced into the cancer cell line H1299 to prepare a cell line capable of stable expression. […] The treated cells were used to measure intracellular luciferase luminescence signals by Nano-Bit for each.

[5] = 11.62 mg/kg intraperitoneal once a week for 3 months

For `COc1ccc(C2=N[C@H](c3ccc(Cl)cc3)[C@H](c3ccc(Cl)cc3)N2C(=O)N2CCNC(=O)C2)c(OC(C)C)c1` [nutlin 3b], the caspase-3 fragmentation (caspase-3; Ras-induced senescent IMR90 cells) was “dose-dependent fragmentation of caspase 3”, the caspase-3 fragmentation (caspase-3; young IMR90 cells) was “did not cause caspase-3 fragmentation” and the “expression of FOXM1, FOXF1, FOXC1, FOXL1, FOXL2, FOXD1, FOXB2, FOXI2, and FOXN1” value (senescent cells; nutlin 3b treatment) was “downregulated”. The “expression of FOXO1, FOXP1, FOXH1, FOXF2, FOXO4, FOXO3, FOXJ3, FOXQ1, FOXK2, FOXN3, FOXO6, FOXK1, FOXP4, FOXN2, and FOXJ2” value (senescent cells; nutlin 3b treatment) was “upregulated”, the “expression of FOXO1 and FOXP1” value (senescent cells; nutlin 3b treatment) was “remarkably upregulated” and the Survivin protein (senescent cells; nutlin 3b-treated senescent cells) was “downregulated”. For the same compound, the “downregulation of Survivin/BIRC5” value (senescent cells; nutlin 3b-treated senescent cells, microarray) was “about 30 fold”, the “FoxM1 mRNA among FOX transcription family members” value (senescent cells; senescent cells) was “most dramatically downregulated” and the “mRNAs for FoxM1 transcription targets (CCNB1, B2, D1, PLK1, ASPM, CEP55)” value (senescent cells; senescent cells) was “significantly affected”. For the same compound, the “expression of the apoptosis-inducing gene BIM” value (BIM gene) was “increased”, the HIF-2α protein expression (HIF-2α; senescent (OIS) IMR90 cells) was “suppressed” and the “influence on HIF-2α mRNA” value (HIF-2α; senescent (OIS) IMR90 cells) was “relatively small”. For the same compound, the HIF-2α protein (HIF-2α; young and senescent cells, different concentrations for 96 hours) was “decreased”, the “potentiation of PGAM-Chk1 binding (intracellular luminescence signals of Nano-Bit)” value (PGAM-Chk1 binding [1]) was “suppressed by the nutlin 3b treatment in a dose-dependent manner” and the “lactate level (plasma)” value [2, 5] was “improved”. For the same compound, the “liver function marker plasma albumin level” value [2, 5] was “improved”, the “muscle strength (wire hang test)” value [2, 5] was “improved” and the “renal function marker plasma BUN” value [2, 5] was “improved”. The “renal function marker plasma creatinine” value [2, 5] was “improved”, the “degree of cellular senescence in adipose tissue (SA ß-Gal staining)” value ([2]; 11.62 mg/kg once a week for 3 months) was “improved” and the “p21-positive cells in the liver” value ([2]; histochemical analysis, 11.62 mg/kg once a week for 3 months) was “significantly decreased”. The “SASP factors (IL6, CXCL1, TNFα, and CCL5)” value ([2]; liver mRNA, 11.62 mg/kg once a week for 3 months) was “reductions”, the “F4/F80-positive cells (macrophage infiltration)” value ([2]; liver, 11.62 mg/kg once a week for 3 months) was “reduced” and the “PGAM-Chk1 binding (interaction)” value (PGAM-Chk1 binding [3]) was “inhibit PGAM-Chk1 interaction to the same extent”. For the same compound, the “luciferase luminescence signal by Nano-Bit (PGAM-Chk1 binding)” value (PGAM-Chk1 binding [4]) was “treatment time-dependent decrease”.
